Where “and” joins values, the source holds several entries; their conditions need not be identical. Identical values can stand only once. Like-named read-outs stand apart in the source and are kept apart here.
Experiments:
[1] = tested on: bacteria on commercial hatching eggs; settings: DHP about 0.1 ppm, P=0.05
Method: As a control, sixty (60) commercial eggs are placed into a biosafety cabinet with the window closed. […] Sixty (60) commercial hatching eggs (test eggs) are placed in the room and both the control and test eggs are sampled, 10 eggs each, four times over the course of five (5) days at 0 hours, 24 hours, 72 hours, and 120 hours.
For sampling, individual eggs are placed in Whirl-Pak bags containing 10 milliliters (ml) of tryptic soy broth and manually rubbed in bag for 1 minute each. The washed eggs are discarded. One (1) ml from each sample is transferred to a deep well plate in triplicate and 10 fold serial dilutions performed with tryptic soy broth to 10−^11 dilution. The deep well plates are incubated for 24 hours at 37° C. After incubation, 5 microliters (5 μl) of each well is stamped onto a 96-well plate containing either tryptic soy agar (TSA) or MacConkey (Macx) agar. TSA agar is a non-selective, general purpose media. Macx agar is a selective, differential culture media for Gram-negative enteric bacilli. The agar plates are incubated 24 hours at 37° C. and then scored for bacterial growth.
Bacterial growth is scored using a Most Probable Number (MPN) calculation.

[2] = tested on: eggs and hatched chicks
Method: A total of 22 replicates of 90 eggs each of age matched, flock matched eggs are stored prior to incubation for 4 to 7 days in an on-site egg room at about 20° C. […] The paired replicates are then incubated to hatching under standard commercial conditions. At hatching, the following parameters are assessed and recorded: Total Hatchability (%), Fertile Hatchability (%),% Infertile, Early dead (%), Mid dead (%), Late dead (%), Cracked (%), Contaminated (%), Live pip (%), Dead pip (%), Cull dead chick (%), Chick Weight (g), Chick A (%), and Chick B (%).

[3] = tested on: C. difficile (endospores) ATCC 43598
[4] = Day 4 DHP+, summary of replicates stored 4 days
[5] = Day 5 DHP+, summary of replicates stored 5 days
[6] = Day 6 DHP+, summary of replicates stored 6 days
[7] = Day 7 DHP+, summary of replicates stored 7 days
[8] = Delta Avg. Trtd versus Avg. Untrd, egg storage 4 to 7 days
[9] = Mean / Avg. Trtd, 22 DHP replicates, egg storage 4 to 7 days
[10] = with DHP, egg storage 4 days, single replicate of 90 eggs
[11] = with DHP, egg storage 5 days, single replicate of 90 eggs
[12] = with DHP, egg storage 6 days, single replicate of 90 eggs
[13] = with DHP, egg storage 7 days, single replicate of 90 eggs
[14] = second contact time (48 hours), Hood (Treated)
[15] = second contact time (48 hours), Room (Treated)

OO [DHP, dry hydrogen peroxide]
number of bacteria growing on TSA ([1]; after 72 hours): significantly reduced | number of bacteria growing on TSA ([1]; after 120 hours): significantly reduced | % Infertile, delta ([2]; 4 day delta, DHP+ versus DHP−): 0.64% | Chick A, delta ([2]; 4 day delta, DHP+ versus DHP−): 0.14% | Chick B, delta ([2]; 4 day delta, DHP+ versus DHP−): −0.14% | Chick Weight, delta ([2]; 4 day delta, DHP+ versus DHP−): 0.89 g | Cont, delta ([2]; 4 day delta, DHP+ versus DHP−): 0.00% | Crack, delta ([2]; 4 day delta, DHP+ versus DHP−): 0.32% | Cull dead cks, delta ([2]; 4 day delta, DHP+ versus DHP−): 0.00% | Dead pip, delta ([2]; 4 day delta, DHP+ versus DHP−): −0.16% | Early dead, delta ([2]; 4 day delta, DHP+ versus DHP−): −0.33% | Fertile Hatchability, delta ([2]; 4 day delta, DHP+ versus DHP−): 0.12% | Late dead, delta ([2]; 4 day delta, DHP+ versus DHP−): −0.64% | Live pip, delta ([2]; 4 day delta, DHP+ versus DHP−): 0.63% | Mid dead, delta ([2]; 4 day delta, DHP+ versus DHP−): 0.16% | Total Hatchability, delta ([2]; 4 day delta, DHP+ versus DHP−): −0.64% | Chick Weight, delta ([2]; 5 day delta, DHP+ versus DHP−): 0.85 g | Cont, delta ([2]; 5 day delta, DHP+ versus DHP−): 0.00% | Crack, delta ([2]; 5 day delta, DHP+ versus DHP−): −0.19% | Cull dead cks, delta ([2]; 5 day delta, DHP+ versus DHP−): 0.00% | Dead pip, delta ([2]; 5 day delta, DHP+ versus DHP−): −0.37% | Early dead, delta ([2]; 5 day delta, DHP+ versus DHP−): −1.70% | Fertile Hatchability, delta ([2]; 5 day delta, DHP+ versus DHP−): 3.20% | Live pip, delta ([2]; 5 day delta, DHP+ versus DHP−): 0.37% | Mid dead, delta ([2]; 5 day delta, DHP+ versus DHP−): 0.74% | % Infertile, delta ([2]; 6 day delta, DHP+ versus DHP−): 0.94% | Chick A, delta ([2]; 6 day delta, DHP+ versus DHP−): −0.57% | Chick B, delta ([2]; 6 day delta, DHP+ versus DHP−): 0.57% | Chick Weight, delta ([2]; 6 day delta, DHP+ versus DHP−): 0.49 g | Cont, delta ([2]; 6 day delta, DHP+ versus DHP−): 0.00% | Crack, delta ([2]; 6 day delta, DHP+ versus DHP−): 0.00% | Cull dead cks, delta ([2]; 6 day delta, DHP+ versus DHP−): −0.48% | Dead pip, delta ([2]; 6 day delta, DHP+ versus DHP−): −0.48% | Late dead, delta ([2]; 6 day delta, DHP+ versus DHP−): −0.82% | Live pip, delta ([2]; 6 day delta, DHP+ versus DHP−): −0.16% | Mid dead, delta ([2]; 6 day delta, DHP+ versus DHP−): 0.48% | Cont [2, 4]: 0.00% | Crack [2, 4]: 0.48% | Cull dead cks [2, 4]: 0.00% | Dead pip [2, 4]: 0.16% | Live pip [2, 4]: 0.95% | Mid dead [2, 4]: 0.16% | Cont [2, 5]: 0.00% | Crack [2, 5]: 0.00% | Cull dead cks [2, 5]: 0.00% | Dead pip [2, 5]: 0.00% | Live pip [2, 5]: 0.56% | Mid dead [2, 5]: 0.93% | Cont [2, 6]: 0.00% | Crack [2, 6]: 0.00% | Cull dead cks [2, 6]: 0.00% | Dead pip [2, 6]: 0.00% | Early dead [2, 6]: 2.70% | Live pip [2, 6]: 0.16% | Mid dead [2, 6]: 0.79% | % Infertile [2, 7]: 0.56% | Cont [2, 7]: 0.00% | Crack [2, 7]: 0.00% | Cull dead cks [2, 7]: 0.56% | Dead pip [2, 7]: 0.00% | Mid dead [2, 7]: 0.56% | % Infertile, delta ([2]; Day 7 Delta, DHP+ versus DHP−): 0.00% | Chick Weight, delta ([2]; Day 7 Delta, DHP+ versus DHP−): 1.10 g | Cont, delta ([2]; Day 7 Delta, DHP+ versus DHP−): −0.56% | Crack, delta ([2]; Day 7 Delta, DHP+ versus DHP−): 0.00% | Cull dead cks, delta ([2]; Day 7 Delta, DHP+ versus DHP−): 0.56% | Dead pip, delta ([2]; Day 7 Delta, DHP+ versus DHP−): 0.00% | Fertile Hatchability, delta ([2]; Day 7 Delta, DHP+ versus DHP−): 0.56% | Late dead, delta ([2]; Day 7 Delta, DHP+ versus DHP−): 0.55% | Mid dead, delta ([2]; Day 7 Delta, DHP+ versus DHP−): 0.56% | Total Hatchability, delta ([2]; Day 7 Delta, DHP+ versus DHP−): 0.56% | % Infertile, delta [2, 8]: 1.00% | Chick A, delta [2, 8]: 0.23% | Chick B, delta [2, 8]: −0.23% | Chick Weight, delta [2, 8]: 0.77 g | Cont, delta [2, 8]: −0.05% | Crack, delta [2, 8]: 0.05% | Cull dead cks, delta [2, 8]: −0.10% | Dead pip, delta [2, 8]: −0.30% | Early dead, delta [2, 8]: −1.70% | Late dead, delta [2, 8]: −0.97% | Live pip, delta [2, 8]: 0.35% | Mid dead, delta [2, 8]: 0.45% | Cont [2, 9]: 0.00% | Crack [2, 9]: 0.15% | Cull dead cks [2, 9]: 0.05% | Dead pip [2, 9]: 0.05% | Live pip [2, 9]: 0.61% | Mid dead [2, 9]: 0.61% | improvement in number of A grade chicks ([2]; all storage times): 0.23% | increase of fertile hatchability vs untreated ([2]; an additional day (five days)): 3.2% | increase of total hatchability vs untreated ([2]; an additional day (five days)): 1.3% | increased weight vs untreated ([2]; an additional day (five days)): 0.85 grams | DHP gas treated eggs observed to be contaminated ([2]; at day 7): none | decrease of number of early deaths ([2]; death during incubation): about 1.7% | mid cycle deaths ([2]; death during incubation): decreased | change of fertile hatchability vs untreated ([2]; eggs treated four days): +0.12 | change of total hatchability vs untreated ([2]; eggs treated four days): −0.64% | increased weight vs untreated ([2]; eggs treated four days): +0.89 g | increase of fertile hatchability vs untreated ([2]; seven day storage): 0.56% | increase of total hatchability vs untreated ([2]; seven day storage): 0.56% | increased weight vs untreated ([2]; seven day storage): 1.10 grams | increase of fertile hatchability vs untreated ([2]; six days): 4.67% | increase of total hatchability vs untreated ([2]; six days): 2.96% | increased weight vs untreated ([2]; six days): 0.49 grams | number of live pip eggs ([2]; vs untreated): increases | % Infer [2, 10]: 0.00% | Chick B [2, 10]: 2.40% and 4.80% and 3.70% | Cont [2, 10]: 0.00% | Crack [2, 10]: 0.00% | Cull dead [2, 10]: 0.00% | Dead pip [2, 10]: 0.00% | Late dead [2, 10]: 0.00% | Live pip [2, 10]: 0.00% | Mid dead [2, 10]: 0.00% | % Infer [2, 11]: 10.00% | Chick A [2, 11]: 100.0% | Cont [2, 11]: 0.00% | Crack [2, 11]: 0.00% | Cull dead [2, 11]: 0.00% | Dead pip [2, 11]: 0.00% | Late dead [2, 11]: 0.00% | Live pip [2, 11]: 0.00% | Mid dead [2, 11]: 0.00% | Total Hatchblty [2, 11]: 90.00% | % Infer [2, 12]: 0.00% | Chick B [2, 12]: 4.80% | Cont [2, 12]: 0.00% | Crack [2, 12]: 0.00% | Cull dead [2, 12]: 0.00% | Dead pip [2, 12]: 0.00% | Late dead [2, 12]: 0.00% | Live pip [2, 12]: 0.00% | Mid dead [2, 12]: 0.00% | Total Hatchblty [2, 12]: 90.00% | % Infer [2, 13]: 0.00% | Check Weight [2, 13]: 44.94 g and 44.41 g | Cont [2, 13]: 0.00% | Crack [2, 13]: 0.00% | Cull dead [2, 13]: 0.00% | Dead pip [2, 13]: 0.00% | Live pip [2, 13]: 0.00% | Mid dead [2, 13]: 0.00% | Average CFU/Carrier ([3]; 24 Hours, Hood (Treated)): 2.75E+06 CFU/Carrier | Log Reduction compared to Control ([3]; 24 Hours, Hood (Treated)): None | Percent Reduction compared to Control ([3]; 24 Hours, Hood (Treated)): None | Average CFU/Carrier ([3]; 24 Hours, Room (Treated)): 1.53E+06 CFU/Carrier | Log Reduction compared to Control ([3]; 24 Hours, Room (Treated)): 0.07 Log | Percent Reduction compared to Control ([3]; 24 Hours, Room (Treated)): 13.96% | Average CFU/Carrier ([3]; 72 Hours, Hood (Treated)): 1.80E+06 CFU/Carrier | Log Reduction compared to Control ([3]; 72 Hours, Hood (Treated)): 0.31 Log | Percent Reduction compared to Control ([3]; 72 Hours, Hood (Treated)): 51.02% | Average CFU/Carrier ([3]; 72 Hours, Room (Treated)): 3.35E+06 CFU/Carrier | Log Reduction compared to Control ([3]; 72 Hours, Room (Treated)): 0.04 Log | Percent Reduction compared to Control ([3]; 72 Hours, Room (Treated)): 8.84% | Average CFU/Carrier [3, 14]: 3.10E+06 CFU/Carrier | Log Reduction compared to Control [3, 14]: 0.24 Log | Percent Reduction compared to Control [3, 14]: 42.06% | Average CFU/Carrier [3, 15]: 3.53E+06 CFU/Carrier | Log Reduction compared to Control [3, 15]: 0.18 Log | Percent Reduction compared to Control [3, 15]: 34.11%

Reference: patent US12102063B2 (SYNEXIS LLC, priority 2017, dated 2024)
